Test [1] deals with angiotensin converting enzyme. The settings on record: Nature 288, 280 (1980); Chem. Pharm. Bull. 34, 1128 (1986); cited from earlier work.
The next test deals with T1, rabbit lung ACE (Oryctolagus cuniculus, UniProt P12822).
T1 construct: from tissue; host or cells: rabbit lung
T1 sequence (P12822 34-1310): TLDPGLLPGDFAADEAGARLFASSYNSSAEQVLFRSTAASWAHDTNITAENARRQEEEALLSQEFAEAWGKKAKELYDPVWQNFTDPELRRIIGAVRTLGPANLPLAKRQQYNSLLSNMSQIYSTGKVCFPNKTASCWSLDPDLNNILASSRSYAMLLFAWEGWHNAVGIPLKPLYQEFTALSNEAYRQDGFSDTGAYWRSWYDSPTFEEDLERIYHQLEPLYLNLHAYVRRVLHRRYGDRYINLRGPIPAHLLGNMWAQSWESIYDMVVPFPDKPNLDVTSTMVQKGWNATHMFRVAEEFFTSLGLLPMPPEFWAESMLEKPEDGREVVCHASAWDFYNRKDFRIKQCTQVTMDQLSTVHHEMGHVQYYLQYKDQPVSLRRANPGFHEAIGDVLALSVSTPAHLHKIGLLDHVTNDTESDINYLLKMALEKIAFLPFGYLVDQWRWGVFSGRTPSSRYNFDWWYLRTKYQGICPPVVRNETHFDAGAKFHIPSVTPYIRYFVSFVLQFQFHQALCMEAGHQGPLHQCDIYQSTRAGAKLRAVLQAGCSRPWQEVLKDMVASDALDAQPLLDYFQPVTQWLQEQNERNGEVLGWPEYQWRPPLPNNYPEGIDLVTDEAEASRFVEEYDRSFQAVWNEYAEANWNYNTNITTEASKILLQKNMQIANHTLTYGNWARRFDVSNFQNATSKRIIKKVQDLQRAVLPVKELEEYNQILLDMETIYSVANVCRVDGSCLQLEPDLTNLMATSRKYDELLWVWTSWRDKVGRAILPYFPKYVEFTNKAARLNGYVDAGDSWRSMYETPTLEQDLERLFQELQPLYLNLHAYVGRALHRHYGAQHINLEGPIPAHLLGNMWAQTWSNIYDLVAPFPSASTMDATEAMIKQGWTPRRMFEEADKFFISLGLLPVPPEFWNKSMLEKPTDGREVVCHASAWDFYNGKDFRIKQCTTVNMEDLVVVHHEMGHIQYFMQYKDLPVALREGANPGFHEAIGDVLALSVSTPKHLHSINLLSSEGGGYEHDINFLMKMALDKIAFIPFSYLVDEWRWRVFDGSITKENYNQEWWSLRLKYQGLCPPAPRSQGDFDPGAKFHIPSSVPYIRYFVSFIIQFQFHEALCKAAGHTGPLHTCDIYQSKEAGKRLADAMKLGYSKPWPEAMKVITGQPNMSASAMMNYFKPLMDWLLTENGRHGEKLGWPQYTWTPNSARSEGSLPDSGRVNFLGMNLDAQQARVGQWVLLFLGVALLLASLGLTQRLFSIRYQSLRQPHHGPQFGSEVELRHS
Put plainly: Inhibition of rabbit lung ACE by the method of Friedland and Silverstein. It is filed as biochemical. The settings on record: for IC50: rabbit lung ACE, method of Friedland and Silverstein, read-out: IC50 (M) = Concentration inhibiting 50% of the activity of rabbit lung ACE. The method, then:
IC50 (M) = Concentration inhibiting 50% of the activity of rabbit
lung ACE was determined by the method of Friedland and Silverstein.

Regarding `CCOC(=O)[C@H](CCc1ccccc1)N[C@@H](C)C(=O)N(CC(=O)O)C1Cc2ccccc2C1` [CV-3317], the “order of strength of activity” value in test [1] is listed as “Lisinopril>Enalapril>CV-3317”. For `CCOC(=O)[C@H](CCc1ccccc1)N[C@@H](C)C(=O)N1CCC[C@H]1C(=O)O` [Enalapril], the “order of strength of activity” value in test [1] was “Lisinopril>Enalapril>CV-3317”. Consider `NCCCC[C@H](N[C@@H](CCc1ccccc1)C(=O)O)C(=O)N1CCC[C@H]1C(=O)O` [Lisinopril], for which the “order of strength of activity” value in test [1] was “Lisinopril>Enalapril>CV-3317”. At rabbit lung ACE, the IC50 was 1.1e-09 M.

For `NCCCC[C@H](N[C@@H](CCC1CCCCC1)C(=O)O)C(=O)N(CC(=O)O)C1CCCC1` [N-[N^α -(1(S)-carboxy-3-cyclohexylpropyl)-L-lysyl]-N-cyclopentylglycine], on rabbit lung ACE (ACE inhibition, compared with Lisinopril), the “strength of activity relative to Lisinopril” value is recorded as “more than 10 times”. The IC50 at rabbit lung ACE came out at 1e-10 M.

Source of the values: patent publication US4897379A, “N-[N^α -(1(S)-carboxy-3-cyclohexylpropyl)-L-lysyl]-N-cyclopentylglycine as antihypertensives” (Asahi Breweries Ltd., priority 1987, dated 1990).
